Results from ChEMBL document CHEMBL5137099, “Discovery of Novel cccDNA Reducers toward the Cure of Hepatitis B Virus Infection” (J Med Chem, 2022).

How the values were obtained:
[1] = Cmax in C57BL/6 mouse at 5 mg/kg, po by LC-MS/MS analysis; format: ADME, organism-based; parameters: dose 5 mg/kg, route po; conditions: in vivo
[2] = Dose normalized Cmax in C57BL/6 mouse at 5 mg/kg, po by LC-MS/MS analysis; format: ADME, organism-based; conditions: in vivo
[3] = Dose normalized AUC (0 to 24 hrs) in C57BL/6 mouse at 2 mg/kg, iv by LC-MS/MS analysis; format: ADME, organism-based; conditions: in vivo
[4] = AUC (0 to infinity) in C57BL/6 mouse at 30 mg/kg, po by LC-MS/MS analysis; format: ADME, organism-based; parameters: time infinity, dose 30 mg/kg, route po; conditions: in vivo
[5] = AUC (0 to infinity) in C57BL/6 mouse at 2 mg/kg, iv by LC-MS/MS analysis; format: ADME, organism-based; parameters: time infinity, dose 2 mg/kg, route iv; conditions: in vivo
[6] = Aqueous solubility of the compound; format: physicochemical; conditions: buffer
[7] = Dose normalized AUC (0 to 24 hrs) in C57BL/6 mouse at 5 mg/kg, po by LC-MS/MS analysis; format: ADME, organism-based; conditions: in vivo
[8] = Tmax in C3H/J mouse plasma at 5 mg/kg, po by LC-MS/MS analysis; format: ADME, organism-based
[9] = Metabolic stability in human microsomes assessed as clearance; format: ADME, Microsome; conditions: read-out: CLH
[10] = Tmax in C57BL/6 mouse at 30 mg/kg, po by LC-MS/MS analysis; format: ADME, organism-based; conditions: in vivo
[11] = Tmax in C57BL/6 mouse at 5 mg/kg, po by LC-MS/MS analysis; format: ADME, organism-based; conditions: in vivo
[12] = Cmax in C57BL/6 mouse at 30 mg/kg, po by LC-MS/MS analysis; format: ADME, organism-based; parameters: dose 30 mg/kg, route po; conditions: in vivo
[13] = Elimination half life in C57BL/6 mouse at 2 mg/kg, iv by LC-MS/MS analysis; format: ADME, organism-based; conditions: in vivo, read-out: beta t1/2 (converted)
[14] = AUC (0 to infinity) in C3H/J mouse at 5 mg/kg, po by LC-MS/MS analysis; format: ADME, organism-based; parameters: time infinity, dose 5 mg/kg, route po; conditions: in vivo
[15] = Elimination half life in C57BL/6 mouse at 30 mg/kg, po by LC-MS/MS analysis; format: ADME, organism-based; conditions: in vivo, read-out: beta t1/2 (converted)
Hepatitis B virus [16] = assay: Antiviral activity against HBV infected in human primary hepatocyte cells assessed as reduction in HBV cccDNA production by measuring inhibition of HBsAg secretion measured after 48 hrs by ELISA; format: functional, organism-based
[17] = Clearance in C57BL/6 mouse at 2 mg/kg, iv by LC-MS/MS analysis; format: ADME, organism-based; conditions: in vivo
[18] = Dose normalized AUC (0 to 24 hrs) in C57BL/6 mouse at 30 mg/kg, po by LC-MS/MS analysis; format: ADME, organism-based; conditions: in vivo
[19] = Oral bioavailability in C57BL/6 mouse at 5 mg/kg by LC-MS/MS analysis; format: ADME, organism-based; conditions: in vivo
[20] = Permeability of the compound by PAMPA analysis; format: ADME; conditions: read-out: permeability
[21] = Cmax in C3H/J mouse plasma at 5 mg/kg, po by LC-MS/MS analysis; format: ADME, organism-based; parameters: dose 5 mg/kg, route po
[22] = Metabolic stability in mouse hepatocytes assessed as intrinsic clearance; format: ADME, cell-based, Hepatocyte; conditions: read-out: CLH
Hepatitis B virus [23] = assay: Antiviral activity against HBV infected in human HepDES19 cells assessed as reduction in HBV cccDNA production by measuring inhibition of HBeAg secretion incubated for 5 days by ELISA; format: functional, organism-based; conditions: HepDES19, 120 h
[24] = Dose normalized AUC (0 to 24 hrs) in C3H/J mouse at 5 mg/kg, po by LC-MS/MS analysis; format: ADME, organism-based; conditions: in vivo
Hepatitis B virus [25] = assay: Antiviral activity against HBV infected in human HepG2 cells assessed as reduction in HBeAg secretion incubated for 5 days by counter screen assay; format: functional, organism-based; conditions: HepG2, 120 h
[26] = Elimination half life in C57BL/6 mouse at 5 mg/kg, po by LC-MS/MS analysis; format: ADME, organism-based; conditions: in vivo, read-out: beta t1/2 (converted)
[27] = Octanol-aqueous buffer distribution coefficient, log D of the compound at pH 7.4 by CAMDIS assay; format: physicochemical
[28] = Elimination half life in C3H/J mouse at 5 mg/kg, po by LC-MS/MS analysis; format: ADME, organism-based; conditions: in vivo, read-out: beta t1/2 (converted)
[29] = AUC (0 to infinity) in C57BL/6 mouse at 5 mg/kg, po by LC-MS/MS analysis; format: ADME, organism-based; parameters: time infinity, dose 5 mg/kg, route po; conditions: in vivo
[30] = Volume of distribution at steady state in C57BL/6 mouse at 2 mg/kg, iv by LC-MS/MS analysis; format: ADME, organism-based; conditions: in vivo, read-out: Vdss
[31] = Dose normalized Cmax in C3H/J mouse at 5 mg/kg, po by LC-MS/MS analysis; format: ADME, organism-based; conditions: in vivo

Cmax [1]: 1650 ng/mL
Cmax/dose [2]: 331 ng/mL
AUC/dose [3]: 937 (ng·h/mL)/(mg/kg)
AUC(0-inf) [4]: 31400 ng·h/mL
AUC(0-inf) [5]: 1900 ng·h/mL
solubility [6]: < 435 µg/mL
AUC/dose [7]: 500 ng·h/mL
Tmax [8]: 0.5 h
CLint scaled [9]: 6.2 mL/min/kg
Tmax [10]: 0.5 h
Tmax [11]: 0.5 h
Cmax [12]: 17300 ng/mL
half-life [13]: 2.1 h
AUC(0-inf) [14]: 761 ng·h/mL
half-life [15]: 4.26 h
clearance [17]: 17.6 mL/min/kg
AUC/dose [18]: 151 ng·h/mL
bioavailability [19]: 56%
Papp [20]: 2.27 ×10⁻⁶ cm/s
Cmax [21]: 580 ng/mL
CLint scaled [22]: 32.3 mL/min/kg
IC50 (Hepatitis B virus [23]): 1740 nM
AUC/dose [24]: 171 (ng·h/mL)/(mg/kg)
half-life [26]: 10.2 h
logD [27]: 1.12
half-life [28]: 1.11 h
AUC(0-inf) [29]: 2680 ng·h/mL
Vd [30]: 0.65 L/kg
Cmax/dose [31]: 116 ng/mL
SMILES: O=C(O)C1CCN(c2ccc3c(=O)c4cccc(Cl)c4oc3c2)C1 (racemic)
IC50 (Hepatitis B virus [16]): 1340 nM
IC50 (Hepatitis B virus [25]): > 50000 nM
